# How the values were obtained:
# [1] = tested on: PBMC; assay: Antiinflammatory activity in human PBMCs assessed as inhibition of LPS-induced IL6 release incubated for 15 mins prior to LPS challenge measured after 24 hrs by HTRF assay; type: functional, cell-based
# [2] = tested on: PBMC; assay: Antiinflammatory activity in human PBMCs assessed as inhibition of LPS-induced IL6 release at 100 uM incubated for 15 mins prior to LPS challenge measured after 24 hrs by HTRF assay relative to control; type: functional
# [3] = tested on: PBMC; assay: Antiinflammatory activity in human PBMCs assessed as inhibition of LPS-induced IL1-beta release at 100 uM incubated for 15 mins prior to LPS challenge measured after 24 hrs by HTRF assay relative to control; type: functional
# [4] = tested on: PBMC; assay: Antiinflammatory activity in human PBMCs assessed as inhibition of LPS-induced IL1-beta release incubated for 15 mins prior to LPS challenge measured after 24 hrs by HTRF assay; type: functional, cell-based
# [5] = tested on: PBMC; assay: Antiinflammatory activity in human PBMCs assessed as inhibition of LPS-induced TNFalpha release incubated for 15 mins prior to LPS challenge measured after 24 hrs by HTRF assay; type: functional, cell-based
# [6] = Terminal half life in CD1 mouse at 10 mg/kg, po; type: ADME, organism-based; set-up: dose 10 mg/kg, route oral; settings: in vivo, read-out: beta t1/2 (converted)
# [7] = Clearance in CD1 mouse at 5 mg/kg, iv; type: ADME, organism-based; set-up: dose 5 mg/kg, route intravenous; settings: in vivo
# [8] = Cmax in CD1 mouse at 10 mg/kg, po; type: ADME, organism-based; set-up: dose 10 mg/kg, route oral; settings: in vivo
# [9] = tested on: PBMC; assay: Antiinflammatory activity in human PBMCs assessed as inhibition of LPS-induced TNFalpha release at 100 uM incubated for 15 mins prior to LPS challenge measured after 24 hrs by HTRF assay relative to control; type: functional
# [10] = AUC in CD1 mouse at 10 mg/kg, po; type: ADME, organism-based; set-up: dose 10 mg/kg, route oral; settings: plasma
# [11] = Oral bioavailability in CD1 mouse at 10 mg/kg; type: ADME, organism-based; settings: in vivo
# [12] = Volume of distribution at steady state in CD1 mouse at 5 mg/kg, iv; type: ADME, organism-based; set-up: dose 5 mg/kg, route intravenous; settings: in vivo, read-out: Vdss
# [13] = Tmax in CD1 mouse at 10 mg/kg, po; type: ADME, organism-based; set-up: dose 10 mg/kg, route oral; settings: in vivo
# [14] = AUC in CD1 mouse at 5 mg/kg, iv; type: ADME, organism-based; set-up: dose 5 mg/kg, route intravenous; settings: plasma
# [15] = Terminal half life in CD1 mouse at 5 mg/kg, iv; type: ADME, organism-based; set-up: dose 5 mg/kg, route intravenous; settings: in vivo, read-out: beta t1/2 (converted)
# [16] = tested on: PBMC; assay: Antiinflammatory activity in human PBMCs assessed as inhibition of LPS-induced IL6 release at 10 uM incubated for 15 mins prior to LPS challenge measured after 24 hrs by HTRF assay relative to control; type: functional
half-life [6] [min],clearance [7] [mL/min/kg],Cmax [8] [ng/mL],AUC [10] [ng·h/mL],bioavailability [11] [%],Vd [12] [L/kg],Tmax [13] [min],AUC [14] [ng·h/mL],half-life [15] [min],Compound,IC50 [1] [µM],inhibition at 100 µM [2] [%],inhibition at 100 µM [3] [%],IC50 [4] [µM],IC50 [5] [nM],inhibition at 100 µM [9] [%],inhibition at 10 µM [16] [%]
,,,,,,,,,Nc1cccc(Oc2ccc3c(c2)B(O)OC3)c1,> 10,< 40,< 40,> 10,> 10000,,
146,38,142,533,15,2.14,15,1740,39,Cl.NCc1ccc(Oc2ccc3c(c2)B(O)OC3)c(F)c1,0.033,80,80,0.043,41,80,
169,36.8,1450,2660,67,2.87,15,2260,83.4,Cl.NCc1ccc(Oc2ccc3c(c2)B(O)OC3)c(Cl)c1,,,,,,,
,,,,,,,,,OB1OCc2ccc(Oc3cccc(CN4CCOCC4)c3)cc21,> 10,< 40,40,4.4,5900,80,
,,,,,,,,,CN1CCN(Cc2cccc(Oc3ccc4c(c3)B(O)OC4)c2)CC1,> 10,< 40,40,7.1,> 10000,< 40,
,,,,,,,,,C[C@H]1C[C@H]2[C@@H]3CCC4=CC(=O)C=C[C@]4(C)[C@@]3(F)[C@@H](O)C[C@]2(C)[C@@]1(O)C(=O)CCl [CLOBETASOL],4.2,80,80,4.4,7,80,
,,,,,,,,,C[C@@H]1C[C@H]2[C@@H]3CCC4=CC(=O)C=C[C@]4(C)[C@@]3(F)[C@@H](O)C[C@]2(C)[C@@]1(O)C(=O)CO [DEXAMETHASONE],,,80,0.0095,17,80,43
,,,,,,,,,C[S+]([O-])c1ccc(-c2nc(-c3ccc(F)cc3)c(-c3ccncc3)[nH]2)cc1 (stereo not drawn) [SB-203580],> 10,< 40,80,0.34,1000,80,
